From ChEMBL document CHEMBL4507274 (2021) come the findings set out here.

A value given as a limit tells only on which side of the number the result lay.

One experiment deals with ACHN. Kind of experiment: Kidney ACHN cell line MDS Pharma Services Proliferation Assay. In kind it is functional, cell-based, Homo sapiens.
Experiment [1] has as its target Protein kinase C eta type (Homo sapiens) (UniProt P24723). Kind of experiment: PKCeta (h) Upstate kinase activity assay. Particulars: Compound concentration 10.0 uM.
Experiment [2] deals with T1, Ephrin type-B receptor 4 (Homo sapiens) (UniProt P54760).
T1 sequence (whole entry): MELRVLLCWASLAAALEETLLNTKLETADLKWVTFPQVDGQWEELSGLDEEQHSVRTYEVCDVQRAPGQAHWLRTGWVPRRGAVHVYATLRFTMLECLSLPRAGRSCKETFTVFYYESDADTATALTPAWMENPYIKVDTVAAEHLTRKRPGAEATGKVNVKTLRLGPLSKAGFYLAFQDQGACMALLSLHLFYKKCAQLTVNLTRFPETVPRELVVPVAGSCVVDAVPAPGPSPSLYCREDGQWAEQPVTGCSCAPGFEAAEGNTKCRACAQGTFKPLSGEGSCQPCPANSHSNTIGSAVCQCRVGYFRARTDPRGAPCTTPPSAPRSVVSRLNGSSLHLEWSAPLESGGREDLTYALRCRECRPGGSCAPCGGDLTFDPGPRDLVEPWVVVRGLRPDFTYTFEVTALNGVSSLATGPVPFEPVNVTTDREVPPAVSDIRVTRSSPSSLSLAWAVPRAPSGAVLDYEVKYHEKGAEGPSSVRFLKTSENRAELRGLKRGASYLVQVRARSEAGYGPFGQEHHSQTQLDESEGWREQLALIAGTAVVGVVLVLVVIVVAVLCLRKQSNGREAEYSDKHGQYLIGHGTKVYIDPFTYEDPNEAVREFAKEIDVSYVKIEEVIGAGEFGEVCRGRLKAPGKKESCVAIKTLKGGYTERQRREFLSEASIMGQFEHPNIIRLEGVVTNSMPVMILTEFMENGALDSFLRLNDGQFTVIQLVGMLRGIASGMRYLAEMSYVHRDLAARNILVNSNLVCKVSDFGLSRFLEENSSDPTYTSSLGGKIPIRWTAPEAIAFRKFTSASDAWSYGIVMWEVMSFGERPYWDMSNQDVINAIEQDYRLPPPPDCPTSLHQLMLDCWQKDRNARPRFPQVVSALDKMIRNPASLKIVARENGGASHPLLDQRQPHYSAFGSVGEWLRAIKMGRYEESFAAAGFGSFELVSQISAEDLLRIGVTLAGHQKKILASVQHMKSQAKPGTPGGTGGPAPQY
Kind of experiment: EphB4 (h) Upstate kinase activity assay. Particulars: Compound concentration 10.0 uM.

For experiment [3], the target named is RAF proto-oncogene serine/threonine-protein kinase (Homo sapiens) (UniProt P04049). Kind of experiment: c-RAF (h) Upstate kinase activity assay. The settings on record: Compound concentration 10.0 uM.
Experiment [4] concerns the target Calcium/calmodulin-dependent protein kinase type II subunit gamma (Rattus norvegicus) (UniProt P11730). Briefly: CaMKII (r) Upstate kinase activity assay. Particulars: Compound concentration 10.0 uM.
The target of experiment [5] is 5-hydroxytryptamine receptor 1A (Homo sapiens) (UniProt P08908). The settings on record: Compound concentration 10.0 uM.
Experiment [6] has as its target Mitogen-activated protein kinase 8 (Homo sapiens) (UniProt P45983). Kind of experiment: JNK1alpha1 (h) Upstate kinase activity assay. Particulars: Compound concentration 10.0 uM.
In experiment [7] the target is Sigma intracellular receptor 2 (Homo sapiens) (UniProt Q5BJF2). Particulars: Compound concentration 10.0 uM.
Experiment [8] deals with Casein kinase II subunit alpha (Homo sapiens) (UniProt P68400). Kind of experiment: CK2 (h) Upstate kinase activity assay. Particulars: Compound concentration 10.0 uM.
Experiment [9] deals with Tyrosine-protein kinase SYK (Homo sapiens) (UniProt P43405). Briefly: Syk (h) Upstate kinase activity assay. The settings on record: Compound concentration 10.0 uM.
Experiment [10] addresses Cyclin-dependent kinase 5/CDK5 activator 1 (Homo sapiens) (UniProt Q00535+Q15078). Kind of experiment: CDK5/ p35 (h) Upstate kinase activity assay. The class given is protein-complex assay. The settings on record: Compound concentration 10.0 uM.
For experiment [11], the target named is T2, Calcium/calmodulin-dependent protein kinase type IV (Homo sapiens) (UniProt Q16566).
T2 sequence (whole entry): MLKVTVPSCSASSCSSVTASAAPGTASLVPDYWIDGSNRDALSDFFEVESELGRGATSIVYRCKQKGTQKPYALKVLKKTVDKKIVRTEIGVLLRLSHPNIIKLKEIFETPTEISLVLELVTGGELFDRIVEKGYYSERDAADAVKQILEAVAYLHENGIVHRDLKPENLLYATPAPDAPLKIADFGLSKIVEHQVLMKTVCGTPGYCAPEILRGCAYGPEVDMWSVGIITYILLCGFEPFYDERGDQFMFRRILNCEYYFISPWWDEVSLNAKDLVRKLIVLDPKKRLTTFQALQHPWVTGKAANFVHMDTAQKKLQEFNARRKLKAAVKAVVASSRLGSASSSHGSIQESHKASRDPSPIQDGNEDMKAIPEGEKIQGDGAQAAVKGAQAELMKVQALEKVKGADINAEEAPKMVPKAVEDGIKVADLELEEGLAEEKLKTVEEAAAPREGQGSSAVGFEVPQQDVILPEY
Briefly: CaMKIV (h) Upstate kinase activity assay. Particulars: Compound concentration 10.0 uM.

For another experiment, the system named is A-431. Kind of experiment: Skin A431 cell line MDS Pharma Services Proliferation Assay. In kind it is functional, cell-based, Homo sapiens.
In experiment [12] the target is Dual specificity mitogen-activated protein kinase kinase 1 (Homo sapiens) (UniProt Q02750). Kind of experiment: MEKI (h) Upstate kinase activity assay. The settings on record: Compound concentration 10.0 uM.
The target of experiment [13] is T3, Serine/threonine-protein kinase Nek2 (Homo sapiens) (UniProt P51955).
T3 sequence (whole entry): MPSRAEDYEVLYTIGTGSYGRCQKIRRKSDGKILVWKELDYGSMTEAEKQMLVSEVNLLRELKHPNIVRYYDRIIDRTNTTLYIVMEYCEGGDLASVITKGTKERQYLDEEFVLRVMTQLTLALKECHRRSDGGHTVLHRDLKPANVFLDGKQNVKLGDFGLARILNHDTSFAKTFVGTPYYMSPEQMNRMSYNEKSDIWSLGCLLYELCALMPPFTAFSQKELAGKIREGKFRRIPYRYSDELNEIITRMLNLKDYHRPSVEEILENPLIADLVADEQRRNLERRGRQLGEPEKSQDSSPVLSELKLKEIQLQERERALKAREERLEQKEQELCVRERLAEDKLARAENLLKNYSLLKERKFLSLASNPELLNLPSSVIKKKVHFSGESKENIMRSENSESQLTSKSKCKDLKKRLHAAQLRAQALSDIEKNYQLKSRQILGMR
Briefly: NEK2 (h) Upstate kinase activity assay. The settings on record: Compound concentration 10.0 uM.

Experiment [14] addresses Epidermal growth factor receptor (Homo sapiens) (UniProt P00533). Particulars: Compound concentration 100.0 nM.
Experiment [15] has as its target 5-hydroxytryptamine receptor 2A (Homo sapiens) (UniProt P28223). Particulars: Compound concentration 10.0 uM.

Casein kinase II subunit alpha (Homo sapiens), sequence (P68400 whole entry, looked up): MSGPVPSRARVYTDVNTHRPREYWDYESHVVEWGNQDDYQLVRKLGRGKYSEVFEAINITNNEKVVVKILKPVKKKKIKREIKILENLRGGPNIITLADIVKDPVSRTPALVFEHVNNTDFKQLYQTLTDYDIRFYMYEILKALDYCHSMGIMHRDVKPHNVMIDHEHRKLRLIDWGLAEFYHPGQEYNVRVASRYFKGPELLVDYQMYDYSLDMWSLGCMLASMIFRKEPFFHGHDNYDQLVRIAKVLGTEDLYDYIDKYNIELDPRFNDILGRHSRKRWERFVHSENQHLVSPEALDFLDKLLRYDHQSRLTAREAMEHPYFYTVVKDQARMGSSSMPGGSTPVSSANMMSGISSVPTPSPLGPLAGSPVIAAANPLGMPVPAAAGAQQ
Cyclin-dependent kinase 5/CDK5 activator 1 (Homo sapiens), sequence (Q00535 whole entry): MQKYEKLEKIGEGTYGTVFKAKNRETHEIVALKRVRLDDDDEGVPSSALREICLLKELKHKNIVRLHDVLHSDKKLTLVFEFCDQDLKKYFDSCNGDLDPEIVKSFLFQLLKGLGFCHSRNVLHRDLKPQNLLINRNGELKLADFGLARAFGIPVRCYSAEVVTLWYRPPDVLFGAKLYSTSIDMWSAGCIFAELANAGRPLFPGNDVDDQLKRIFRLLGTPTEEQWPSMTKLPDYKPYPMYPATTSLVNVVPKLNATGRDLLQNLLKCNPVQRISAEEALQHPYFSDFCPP
Cyclin-dependent kinase 5/CDK5 activator 1 (Homo sapiens), sequence (Q15078 99-307 partner limits assumed): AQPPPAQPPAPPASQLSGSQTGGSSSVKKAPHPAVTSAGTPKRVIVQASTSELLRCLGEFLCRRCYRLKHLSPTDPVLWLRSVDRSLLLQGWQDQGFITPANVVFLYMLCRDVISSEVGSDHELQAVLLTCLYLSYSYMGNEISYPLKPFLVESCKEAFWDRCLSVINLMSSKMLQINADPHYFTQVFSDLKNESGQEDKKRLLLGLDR
Calcium/calmodulin-dependent protein kinase type II subunit gamma (Rattus norvegicus), sequence (P11730 whole entry): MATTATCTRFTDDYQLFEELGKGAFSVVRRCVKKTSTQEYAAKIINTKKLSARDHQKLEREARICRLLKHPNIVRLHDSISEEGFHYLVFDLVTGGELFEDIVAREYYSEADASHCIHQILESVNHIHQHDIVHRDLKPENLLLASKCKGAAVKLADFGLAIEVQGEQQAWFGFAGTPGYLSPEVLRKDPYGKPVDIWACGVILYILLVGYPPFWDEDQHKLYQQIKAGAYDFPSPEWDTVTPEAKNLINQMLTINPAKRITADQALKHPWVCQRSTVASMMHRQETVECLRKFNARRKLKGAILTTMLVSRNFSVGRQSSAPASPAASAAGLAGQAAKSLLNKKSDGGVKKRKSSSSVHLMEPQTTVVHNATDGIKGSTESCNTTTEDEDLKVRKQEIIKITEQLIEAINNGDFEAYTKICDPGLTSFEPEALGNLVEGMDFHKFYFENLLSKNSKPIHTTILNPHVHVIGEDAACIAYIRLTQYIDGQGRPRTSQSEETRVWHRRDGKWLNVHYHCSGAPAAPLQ
Mitogen-activated protein kinase 8 (Homo sapiens), sequence (P45983 whole entry): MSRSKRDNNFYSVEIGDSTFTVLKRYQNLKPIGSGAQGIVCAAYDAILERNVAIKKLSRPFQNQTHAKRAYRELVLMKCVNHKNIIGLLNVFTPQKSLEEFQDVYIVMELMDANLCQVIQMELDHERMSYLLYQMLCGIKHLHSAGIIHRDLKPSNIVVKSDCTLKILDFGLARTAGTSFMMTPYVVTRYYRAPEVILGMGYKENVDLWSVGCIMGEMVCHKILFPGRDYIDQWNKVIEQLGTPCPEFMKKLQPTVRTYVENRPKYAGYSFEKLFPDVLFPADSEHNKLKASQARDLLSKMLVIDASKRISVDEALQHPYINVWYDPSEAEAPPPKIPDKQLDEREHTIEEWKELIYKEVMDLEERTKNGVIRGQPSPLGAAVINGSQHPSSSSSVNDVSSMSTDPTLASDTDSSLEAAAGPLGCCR
5-hydroxytryptamine receptor 1A (Homo sapiens), sequence (P08908 whole entry): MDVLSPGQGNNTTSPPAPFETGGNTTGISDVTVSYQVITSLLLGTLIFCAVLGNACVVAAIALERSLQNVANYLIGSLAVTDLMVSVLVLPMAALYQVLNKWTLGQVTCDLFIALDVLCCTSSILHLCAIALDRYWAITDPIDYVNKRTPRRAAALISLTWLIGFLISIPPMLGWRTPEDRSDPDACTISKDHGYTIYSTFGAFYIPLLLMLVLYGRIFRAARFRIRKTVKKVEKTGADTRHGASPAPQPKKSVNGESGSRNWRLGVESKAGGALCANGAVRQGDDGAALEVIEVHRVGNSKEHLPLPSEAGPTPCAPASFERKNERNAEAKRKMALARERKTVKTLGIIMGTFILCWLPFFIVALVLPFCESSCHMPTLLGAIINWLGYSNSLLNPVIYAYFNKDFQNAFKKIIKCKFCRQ
5-hydroxytryptamine receptor 2A (Homo sapiens), sequence (P28223 whole entry): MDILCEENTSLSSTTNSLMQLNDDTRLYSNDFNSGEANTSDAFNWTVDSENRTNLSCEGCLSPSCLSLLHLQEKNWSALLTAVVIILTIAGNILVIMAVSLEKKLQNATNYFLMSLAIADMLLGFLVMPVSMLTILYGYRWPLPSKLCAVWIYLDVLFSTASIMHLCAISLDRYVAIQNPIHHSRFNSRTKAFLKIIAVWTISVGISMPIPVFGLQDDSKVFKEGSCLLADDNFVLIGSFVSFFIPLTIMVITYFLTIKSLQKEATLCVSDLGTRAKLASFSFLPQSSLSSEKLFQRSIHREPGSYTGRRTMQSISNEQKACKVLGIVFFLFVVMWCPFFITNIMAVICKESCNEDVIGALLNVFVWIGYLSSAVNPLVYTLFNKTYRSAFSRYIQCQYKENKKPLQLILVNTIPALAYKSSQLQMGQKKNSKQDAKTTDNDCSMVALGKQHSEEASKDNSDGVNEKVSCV
Epidermal growth factor receptor (Homo sapiens), sequence (P00533 whole entry): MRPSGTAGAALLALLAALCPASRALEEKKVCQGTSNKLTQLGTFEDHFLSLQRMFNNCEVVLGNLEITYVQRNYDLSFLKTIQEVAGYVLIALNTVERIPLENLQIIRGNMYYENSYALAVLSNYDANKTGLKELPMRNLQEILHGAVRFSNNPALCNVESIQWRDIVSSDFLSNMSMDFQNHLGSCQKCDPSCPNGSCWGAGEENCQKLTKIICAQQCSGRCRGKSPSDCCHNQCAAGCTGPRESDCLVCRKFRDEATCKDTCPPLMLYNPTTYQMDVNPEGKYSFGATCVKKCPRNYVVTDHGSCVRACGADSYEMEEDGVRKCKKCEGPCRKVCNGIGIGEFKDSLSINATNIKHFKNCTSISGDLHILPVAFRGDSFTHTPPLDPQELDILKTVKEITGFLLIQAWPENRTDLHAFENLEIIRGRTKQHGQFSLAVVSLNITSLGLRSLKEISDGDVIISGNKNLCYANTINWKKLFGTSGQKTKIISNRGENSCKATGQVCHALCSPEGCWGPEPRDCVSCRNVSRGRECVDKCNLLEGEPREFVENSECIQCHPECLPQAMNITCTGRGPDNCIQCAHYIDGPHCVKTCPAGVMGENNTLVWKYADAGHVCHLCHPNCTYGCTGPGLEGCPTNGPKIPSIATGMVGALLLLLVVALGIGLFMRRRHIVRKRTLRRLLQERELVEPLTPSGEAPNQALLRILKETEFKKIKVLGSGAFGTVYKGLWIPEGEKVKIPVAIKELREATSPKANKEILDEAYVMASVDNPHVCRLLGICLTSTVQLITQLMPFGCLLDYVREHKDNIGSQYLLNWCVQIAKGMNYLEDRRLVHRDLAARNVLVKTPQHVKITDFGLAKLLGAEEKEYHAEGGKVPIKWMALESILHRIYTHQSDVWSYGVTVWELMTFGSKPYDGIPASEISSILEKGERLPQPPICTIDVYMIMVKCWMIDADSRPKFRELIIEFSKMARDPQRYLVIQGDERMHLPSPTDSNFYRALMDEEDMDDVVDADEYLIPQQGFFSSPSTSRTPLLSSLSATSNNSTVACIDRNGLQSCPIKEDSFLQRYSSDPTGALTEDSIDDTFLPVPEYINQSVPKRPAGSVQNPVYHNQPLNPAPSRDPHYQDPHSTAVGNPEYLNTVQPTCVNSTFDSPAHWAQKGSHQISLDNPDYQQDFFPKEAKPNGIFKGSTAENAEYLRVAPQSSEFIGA
Sigma intracellular receptor 2 (Homo sapiens), sequence (Q5BJF2 whole entry): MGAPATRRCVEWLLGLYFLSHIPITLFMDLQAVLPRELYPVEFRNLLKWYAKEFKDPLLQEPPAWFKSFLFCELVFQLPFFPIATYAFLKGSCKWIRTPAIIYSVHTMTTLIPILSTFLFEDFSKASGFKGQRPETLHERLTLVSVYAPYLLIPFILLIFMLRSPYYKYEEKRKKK
Dual specificity mitogen-activated protein kinase kinase 1 (Homo sapiens), sequence (Q02750 whole entry): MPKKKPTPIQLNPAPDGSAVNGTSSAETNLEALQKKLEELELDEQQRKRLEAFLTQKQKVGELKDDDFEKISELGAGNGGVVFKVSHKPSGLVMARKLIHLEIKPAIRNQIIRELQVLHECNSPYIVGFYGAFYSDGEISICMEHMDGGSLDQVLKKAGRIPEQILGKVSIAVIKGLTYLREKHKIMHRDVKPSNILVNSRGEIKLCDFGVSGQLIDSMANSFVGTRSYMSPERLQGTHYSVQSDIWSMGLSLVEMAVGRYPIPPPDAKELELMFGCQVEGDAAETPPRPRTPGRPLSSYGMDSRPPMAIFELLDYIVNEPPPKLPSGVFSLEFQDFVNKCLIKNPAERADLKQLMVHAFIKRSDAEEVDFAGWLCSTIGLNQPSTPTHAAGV

For orientation: IC50 means the midpoint of a concentration-inhibition curve. Broadly, the TGI is the concentration at which net growth stops. Low values mean greater sensitivity of the cells, high ones lower sensitivity of the cells. In general, inhibition refers to the relative decrease from the control value, in per cent. As to `Cc1c[nH]c2nccc(Oc3c(F)cc(Nc4cc(Cl)nc(N)n4)cc3F)c12` [BAY-549], the “Mean % growth (n = 2) for 10.0 µM probe concentration” value with ACHN turned out to be 27%; in the experiment on A-431 (± SEM 3 % growth) it was 35%. Further, the IC50 came out at 3.6 µM in the experiment on ACHN (Homo sapiens, ACHN) and 5.5 µM in the experiment on A-431 (Homo sapiens, A-431). The concentration for total growth inhibition (TGI) was found to be 32 µM in the experiment with ACHN (Homo sapiens, ACHN) and 31 µM in the experiment on A-431 (Homo sapiens, A-431). The CC50 with ACHN (Homo sapiens, ACHN, read-out: LC50 (the source's name)) is more than 100 µM; with A-431 (Homo sapiens, A-431, read-out: LC50 (the source's name)), more than 100 µM. In addition, the “Mean % growth (n = 2) for 0.01 µM probe concentration” value in the experiment with ACHN (± SEM 1 % growth) was found to be 103%; in the experiment on A-431 (± SEM 9 % growth), 92%. The figures for the “Mean % growth (n = 2) for 0.1 µM probe concentration” value in the experiment with ACHN (± SEM 2 % growth) and in the experiment with A-431 (± SEM 6 % growth) were 106% and 103%, respectively. For the same compound, the “Mean % growth (n = 2) for 100.0 µM probe concentration” value with ACHN (± SEM 4 % growth) is recorded as -25%; in the experiment with A-431 (± SEM 5 % growth) it was -36%. For the same compound, the figures for the “Mean % growth (n = 2) for 1.0 µM probe concentration” value in the experiment on ACHN (± SEM 10 % growth) and with A-431 (± SEM 3 % growth) were 60% and 77%, respectively. For the same compound, the inhibition in [1] was 24%; in experiment [2] it was -9%; in experiment [3], 76%; in [4], 7%; in [5] it was 11.7%; in [6], 22%. Also, the inhibition in experiment [7] is 31.9%; in experiment [8], 6%; in experiment [9], 20%; in experiment [10] it was 7%; in [11] it was -8%; in [12], 9%. In addition, the inhibition in experiment [13] was 19%.

In general, residual activity refers to the signal under treatment as a percentage of the control signal. Turning to `Cn1cc(Cl)c2c(Oc3c(F)cc(Nc4cc(Cl)nc(N)n4)cc3F)ccnc21` [BAY-4900], in experiment [14], the residual activity was 97%. The inhibition in experiment [15] was -1.36%.
